Assay results published in patent publication US12312352B2, “Use of a DPP-4 inhibitor in SIRS and/or sepsis” (Boehringer ingelheim International GmbH, priority 2012, dated 2025).

Experiments:
[1] = Mean plasma concentration of linagliptin in rats on linagliptin diet; type: in vivo; conditions: diet containing 0.083 mg/kg linagliptin
septic rats = assay: Survival of septic rats (LPS 10 mg/kg i.p.) with and without linagliptin treatment; type: in vivo, female Wistar rats; conditions: 24 hours after LPS 10 mg/kg i.p.; linagliptin diet from 2 days before LPS; LPS alone about 28%; p=0.015 LPS vs. LPS+Linagliptin; preliminary data
Description: Animals are injected at day 2 with 10 mg/kg LPS (lipopolysaccharide) i.p. and observed for 4 additional days.
It should be noted that the survival curve only represents preliminary data (“pseudo Kaplan-Meier-curve”) since the exact time point of death of the rats is not assessed. The female Wistar rats are injected with LPS in the morning, monitored during the day and transferred back to the stable in the evening. Deaths are registered in the morning of the next day.

septic animals = conditions: cited from earlier work
[2] = Safety and tolerability in people with type 2 diabetes
septic mice = assay: Survival in experimental sepsis, first study: LPS 20 mg/kg i.p. on Day 6 of 7 days treatment; conditions: linagliptin 5 mg/kg/d in drinking water (p=0.067), liraglutide 0.2 mg/kg/d s.c. injection (p=0.005), placebo/LPS 100% die within 48 h
[3] = Pharmacokinetics of BI 1356 after multiple oral doses (1, 2.5, 5 or 10 mg once daily for 12 days) in patients with type 2 diabetes

In the case of `CC#CCn1c(N2CCC[C@@H](N)C2)nc2c1c(=O)n(Cc1nc(C)c3ccccc3n1)c(=O)n2C` [linagliptin], the mean plasma concentration [1] is listed as 50 to 150 nM, the mortality (septic rats) is listed as “No mortality” and the “vascular dysfunction, vascular inflammation and aortic, cardiac and blood oxidative stress” value (septic animals; experimental sepsis model) is listed as “improves vascular dysfunction and vascular inflammation as well as aortic, cardiac, and blood oxidative stress”. The “immune cell infiltration into the vascular tissue” value (septic animals; septic animals, previous studies) was “prevention of immune cell infiltration into the vascular tissue”, the safety and tolerability [2] was “placebo-like” and the “survival vs placebo/LPS group” value (septic mice) was “trend for a higher survival rate”. For the same compound, the “form and route of excretion” value ([3]; human, in vivo) was “primarily excreted unchanged via the bile” and the “main organ of excretion” value ([3]; therapeutic oral dose levels) was “mainly excreted via the liver”.
